These results are taken from PubChem BioAssay (NCI).

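Following 48 hours of exposure in 96-well plates, responses at five concentrations were used to interpolate endpoints linearly. TGI marks complete inhibition of growth.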

Among the test systems are 786-0 renal; EKVX NSCLC; HCC-2998 colon; HCT-15 colon; IGROV1 ovarian; KM12 colon; M14 melanoma; MDA-N; OVCAR-5 ovarian; OVCAR-8 ovarian; PC-3 prostate; RPMI-8226 leukemia; RXF 393 renal; SF-539 CNS; SK-MEL-2 melanoma; SK-MEL-28 melanoma; SN12C renal; T-47D breast; U251 CNS; UACC-62 melanoma.
Common to all, as to test: NCI-60 cell line screen, 48 h

`CCN(CC)c1ccc(/C=C2/C[N+](C)(C)C/C(=C/c3ccc(N(CC)CC)cc3)C2=O)cc1`: the TGI was 13.6 µM in the experiment on 786-0 renal; 75.7 µM in the experiment with EKVX NSCLC; 6.25 µM in the experiment with HCC-2998 colon; more than 100 µM in the experiment with HCT-15 colon; 6.57 µM in the experiment with IGROV1 ovarian; 2.91 µM in the experiment on KM12 colon. In addition, the TGI in the experiment with M14 melanoma was determined as 7.07 µM; with MDA-N it was 3.56 µM; with OVCAR-5 ovarian it was 50.4 µM; in the experiment on OVCAR-8 ovarian, 14.7 µM; in the experiment on PC-3 prostate, 35.7 µM; in the experiment on RPMI-8226 leukemia, 1.24 µM. The TGI was 10.3 µM in the experiment on RXF 393 renal; 6.19 µM in the experiment on SF-539 CNS; 3.92 µM in the experiment with SK-MEL-2 melanoma; 4.09 µM with SK-MEL-28 melanoma; 16.4 µM with SN12C renal; 11.3 µM in the experiment on T-47D breast. Further, the figures for the TGI in the experiment with U251 CNS and with UACC-62 melanoma were 9.24 µM and 4.84 µM, respectively.

As to `CC(C)(C)OC(=O)CC(NC(=O)OC(C)(C)C)C(=O)N[C@@H]1CCCC[C@H]1C(=O)OCc1ccccc1` (stereo not given in full), the TGI in the experiment on 786-0 renal was more than 100 µM; with EKVX NSCLC it was more than 100 µM; in the experiment on HCC-2998 colon, 64.7 µM; with HCT-15 colon, 39.4 µM; in the experiment on IGROV1 ovarian it was more than 100 µM; in the experiment with KM12 colon it was more than 100 µM. For the same compound, the TGI with M14 melanoma was more than 100 µM; in the experiment with MDA-N, more than 100 µM; in the experiment with OVCAR-5 ovarian, more than 100 µM; with OVCAR-8 ovarian it was more than 100 µM; in the experiment on PC-3 prostate it was more than 100 µM; with RPMI-8226 leukemia it was 95.4 µM. The TGI was more than 100 µM in the experiment on RXF 393 renal; 64 µM in the experiment with SF-539 CNS; 61.1 µM in the experiment with SK-MEL-2 melanoma; more than 100 µM with SK-MEL-28 melanoma; 48.7 µM with SN12C renal; 59.3 µM in the experiment with T-47D breast. For the same compound, the TGI in the experiment on U251 CNS worked out at 61.4 µM; with UACC-62 melanoma, 60.8 µM.

As to `CC(C)c1nc2cc(C(F)(F)F)ccc2[nH]c1=O`, the TGI in the experiment on 786-0 renal, in the experiment with EKVX NSCLC, in the experiment with HCC-2998 colon, in the experiment with HCT-15 colon, with IGROV1 ovarian and in the experiment on KM12 colon was more than 100 µM throughout. Besides, the TGI in the experiment on M14 melanoma, in the experiment on MDA-N, in the experiment with OVCAR-5 ovarian, in the experiment on OVCAR-8 ovarian, with PC-3 prostate and with RPMI-8226 leukemia was more than 100 µM throughout. Moreover, the TGI in the experiment with RXF 393 renal, with SF-539 CNS, with SK-MEL-2 melanoma, in the experiment with SK-MEL-28 melanoma, in the experiment with SN12C renal and in the experiment with T-47D breast was more than 100 µM each time. In addition, the TGI in the experiment with U251 CNS and with UACC-62 melanoma was more than 100 µM throughout.

Regarding `CN(C)c1ccc(/C=C(\NC(=O)c2ccccc2)C(=O)NCC(=O)O)cc1`, the TGI in the experiment on 786-0 renal, in the experiment with EKVX NSCLC, in the experiment with HCC-2998 colon, with HCT-15 colon, with IGROV1 ovarian and with KM12 colon was more than 100 µM throughout. Further, the TGI in the experiment on M14 melanoma, in the experiment with MDA-N, with OVCAR-5 ovarian, with OVCAR-8 ovarian, in the experiment on PC-3 prostate and in the experiment on RPMI-8226 leukemia was more than 100 µM in each case. For the same compound, the TGI in the experiment with RXF 393 renal, in the experiment on SF-539 CNS, in the experiment with SK-MEL-2 melanoma, in the experiment with SK-MEL-28 melanoma, with SN12C renal and in the experiment on T-47D breast was more than 100 µM in each case. In addition, the TGI with U251 CNS and in the experiment with UACC-62 melanoma was more than 100 µM in each case.

For `COC(=O)C1CCOC(C)N1C(=O)OC(C)(C)C` (stereo not given), the TGI with 786-0 renal, in the experiment with EKVX NSCLC, in the experiment with HCC-2998 colon, with HCT-15 colon, with IGROV1 ovarian and in the experiment on KM12 colon was more than 100 µM throughout. Besides, the TGI in the experiment on M14 melanoma, with MDA-N, in the experiment on OVCAR-5 ovarian, in the experiment on OVCAR-8 ovarian, in the experiment with PC-3 prostate and in the experiment with RPMI-8226 leukemia was more than 100 µM each time. Also, the TGI in the experiment with RXF 393 renal, with SF-539 CNS, with SK-MEL-2 melanoma, with SK-MEL-28 melanoma, in the experiment on SN12C renal and in the experiment on T-47D breast was more than 100 µM throughout. For the same compound, the TGI in the experiment on U251 CNS and in the experiment on UACC-62 melanoma was more than 100 µM throughout.

On to `S=C1Cc2c(-c3ccc(Cl)cc3)cc(-c3ccccc3)nc2-c2ccccc2N1`, for which the TGI in the experiment with 786-0 renal was 21.8 µM; with EKVX NSCLC, 54.9 µM; with HCC-2998 colon it was more than 100 µM; in the experiment with HCT-15 colon, more than 100 µM; in the experiment on IGROV1 ovarian, 14 µM; in the experiment with KM12 colon it was 50.9 µM. Besides, the TGI in the experiment with M14 melanoma is 49 µM; in the experiment on MDA-N, 30.4 µM; in the experiment on OVCAR-5 ovarian, 92.9 µM; in the experiment with OVCAR-8 ovarian, 8.04 µM; with PC-3 prostate it was 44 µM; in the experiment with RPMI-8226 leukemia, more than 100 µM. Further, the TGI in the experiment with RXF 393 renal was 21.9 µM; in the experiment with SF-539 CNS, 16.2 µM; in the experiment on SK-MEL-2 melanoma, 37.6 µM; in the experiment on SK-MEL-28 melanoma it was more than 100 µM; in the experiment with SN12C renal, 31.3 µM; in the experiment with T-47D breast it was more than 100 µM. For the same compound, the TGI in the experiment with U251 CNS is more than 100 µM; with UACC-62 melanoma it was 41.3 µM.

As for `O=[N+]([O-])c1ccc2[nH]nc(OCc3ccccn3)c2c1`, the TGI in the experiment on 786-0 renal, with EKVX NSCLC, in the experiment on HCC-2998 colon, with HCT-15 colon, with IGROV1 ovarian and with KM12 colon was more than 100 µM each time. Moreover, the TGI in the experiment with M14 melanoma, in the experiment with MDA-N, with OVCAR-5 ovarian, with OVCAR-8 ovarian, in the experiment on PC-3 prostate and with RPMI-8226 leukemia was more than 100 µM throughout. Besides, the TGI in the experiment with RXF 393 renal, with SF-539 CNS, in the experiment with SK-MEL-2 melanoma, with SK-MEL-28 melanoma, in the experiment on SN12C renal and with T-47D breast was more than 100 µM each time. Also, the TGI with U251 CNS and in the experiment on UACC-62 melanoma was more than 100 µM in each case.
